The record followed here is patent US11512097B2, “Heterocyclic compounds as Delta-5 desaturase inhibitors and methods of use” (Amgen Inc., priority 2019, dated 2022).

This test addresses T1, Delta-5-Desaturase (D5D) (Mus musculus, UniProt Q920L1).
T1 construct: tissue Jackson Laboratories strain #3800050; host or cells: whole animal (DIO mice)
T1 sequence (Q920L1 1-447): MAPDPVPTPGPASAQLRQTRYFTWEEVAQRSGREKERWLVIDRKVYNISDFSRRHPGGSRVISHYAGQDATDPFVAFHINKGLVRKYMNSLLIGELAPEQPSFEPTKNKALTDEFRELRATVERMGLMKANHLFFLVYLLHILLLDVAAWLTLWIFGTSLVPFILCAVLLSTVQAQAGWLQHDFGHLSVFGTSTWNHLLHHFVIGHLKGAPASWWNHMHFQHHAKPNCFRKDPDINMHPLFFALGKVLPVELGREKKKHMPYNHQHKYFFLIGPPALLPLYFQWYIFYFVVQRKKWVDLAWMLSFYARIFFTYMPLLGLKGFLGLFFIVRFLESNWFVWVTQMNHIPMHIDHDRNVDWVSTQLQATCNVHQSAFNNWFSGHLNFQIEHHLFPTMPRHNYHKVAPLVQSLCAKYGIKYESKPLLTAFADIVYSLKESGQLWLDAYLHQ
The experiment in a line: In vivo measurement of Delta-5-Desaturase inhibitory activity (plasma AA/DGLA ratio in DIO mice). To be noted: single oral dose 30 mg/kg, relative to vehicle group. On the procedure: In Vivo Measurement of Delta-5-Desaturase Inhibitory Activity
Diet-induced obese (DIO; Jackson Laboratories strain #[…]) mice were used to screen for pharmacodynamic (PD) activity of test compounds. Generally, 14 to 24 week old DIO mice, were administered test compounds formulated in the vehicle of 2% hydroxypropyl methylcellulose (HPMC) and 1% Tween80. Animals were dosed on body weight by oral gavage with a single dose (30 mg/kg) for PD studies. Necropsy included plasma collection for PUFA analysis. 10 μl of plasma or standards diluted in surrogate matrix (65 g/l bovine serum albumin in Dulbecco's phosphate-buffered saline) were mixed with 10 μl of an internal standard (100 μM alpha-linolenic acid-d14 (ALA-d14, Cayman Chemical)) in a 96 well plate. 100 μl of 2N NAOH was added to the mixture for subsequent saponification at 65° C. for 1 hour. The mixture was then acidified with 50 μl of formic acid followed by two consecutive hexane extractions. Hexane (500 μl) was added and the mixture thoroughly mixed by vortexing, followed by centrifugation at 4,000 rpm for 15 min. The hexane phase was transferred to a new 1 ml 96 well plate and the remaining aqueous layer was extracted with hexane. The organic extracts were combined and the solvent was removed by placing the plate under nitrogen gas at 55° C. 250 μl of 90% methanol was added to the plate followed by vortexing for 2 minutes. 200 μl of the samples were transferred to a new 96 well polypropylene plate. The samples were analyzed on a LC-MS/MS for the following PUFAs: arachidonic acid (AA), dihomo-gamma-linolenic acid (DGLA), with ALA-d14 as the internal standard. Description of the LC-MS/MS method: 5 μl of sample was injected onto a Poroshell 120 EC-C18 3.0×50 mm, 1.9 μm id column. […] The PUFA peak areas were quantified by using the SCIEX Analyst software. […] The relative decrease of the AA/DGLA ratio of the test compound administered group relative to the vehicle administered group was calculated and used as an index for the degree of D5D inhibition. […]

On to `Cc1nn2c(=O)c(-c3cnn(CC(F)(F)C(F)(F)F)c3)c(C(F)(F)F)nc2s1` [Example 2, 2-methyl-6-[1-(2,2,3,3,3-pentafluoropropyl)-1H-pyrazol-4-yl]-7-(trifluoromethyl)-5H-[1,3,4]thiadiazolo[3,2-a]pyrimidin-5-one], for which the “Average % D5D Inhibition expressed as Plasma Endogenous AA/DGLA Ratio” value stood at 66%.
